Laboratory results: a melting point compilation (Tetko et al.; mined from patent text by program, amines drawn as free bases though some values may be those of a salt)

Compared with `CN(CCO)c1nccc(Oc2ccc(NC(=O)c3cc(F)cc(N4CCOCC4)c3)c3ccccc23)n1`, `O=C(NNC(=O)c1ccncc1)Nc1cccc2c1C(=O)c1c-2n[nH]c1-c1ccc(N2CCNCC2)cc1` is higher in melting point: 100 to 102 °C for the first, 232 °C for the second.

First: O=C(O)Cc1ccc(CCNS(=O)(=O)c2ccc3ccccc3c2)cc1
Second: COc1ccc(S(=O)(=O)C(C)(Cc2ccc3ccccc3c2)C(=O)NO)cc1 (stereo not drawn)
The melting point of the first is lower: 135 to 136 °C for the first, 185 to 187 °C for the second.

First: CC(C)(C(=O)OCC(=O)c1ccccc1)n1c(=O)[nH]c2cc(Cl)ccc2c1=O
Second: NC(=O)COc1c(-c2ccccc2)c(=O)[nH]c2cc(Cl)ccc12
The melting point of the first is lower: 203 to 204 °C for the first, 262 to 264 °C for the second.

First: CC1(C)C(=O)Nc2cc3[nH]c(CCC(=O)O)nc3cc21
Second: Cc1nc(CCn2cnc3c2c(=O)[nH]c(=O)n3C)no1
The melting point of the first is lower: 130 to 135 °C for the first, 258 to 260 °C for the second.

First: COC(=O)COc1c(OC)cc(C(=O)C#Cc2cc(-c3cccs3)c(OC)cc2OC)cc1OC
Second: COC(=O)c1cc(-c2nc(COc3ccc(C=O)cc3OC)c(C)o2)ccc1C
The melting point of the first is higher: 153 to 155 °C for the first, 136 to 137 °C for the second.

Compared with `O=CNC1=NN(c2cccc(Cl)n2)CC1`, `CC1CCc2ccc(C#N)c3c(=O)c(C(=O)O)cn1c23` (stereo not drawn) is higher in melting point: 190 to 192 °C for the first, > 300 °C for the second.

Compared with `CCOC(=O)CN1C(=O)C(=O)N(C)C1=O`, `CCCCn1nc(C(N)=O)cc1C` is higher in melting point: 97 to 98.5 °C for the first, 114 °C for the second.

First: O=C(O)c1cc(Cl)ccc1C(O)=NCc1ccccc1
Second: O=CC(=O)c1ccc(OCc2ccccc2)c(CO)c1
The melting point of the first is lower: 117 to 119 °C for the first, 180 to 181 °C for the second.

Compared with `CC(=O)OC(OC(C)=O)c1ccc([N+](=O)[O-])cc1`, `COC(=O)c1ccc(C(OC(C)=O)OC(C)=O)cc1` is lower in melting point: 124 to 126 °C for the first, 64 to 67 °C for the second.

First: O=C(c1ccc(CNc2nc(-c3ccccc3)nc3ccccc23)cc1)N1CCN(c2ncc(Cc3ccccc3)cn2)CC1
Second: C=C(C)CN(CC)c1nc(N2CCN(C(=O)NC(c3ccccc3)c3ccccc3)CC2)nc(N(CC)CC(=C)C)n1
The melting point of the first is higher: 216 to 217 °C for the first, 178 to 180 °C for the second.

First: CCN1C(=O)COc2ccc(-c3nn[nH]c3-c3cccc(C)n3)cc21
Second: Cn1c(CN2C(=O)C3(COc4cc5c(cc43)CCO5)c3ccccc32)nc2ccccc21 (stereo not drawn)
The melting point of the first is lower: 187 °C for the first, 244 to 246 °C for the second.

First: COc1ccc(CC2NC(=O)NC2=O)cc1 (stereo not drawn)
Second: Cc1cc(N2CCC[C@H]2COc2ccc(CC3SC(=O)NC3=O)cc2)nc2ccccc12 (stereo partly drawn)
The melting point of the first is higher: 174 °C for the first, 95 to 97 °C for the second.

First: C/C(Cl)=C/CC(C)(C(=O)O)C(=O)O
Second: CC(C)(C)OC(=O)NCc1cccc(C(=O)O)n1
The melting point of the first is lower: 99 to 101 °C for the first, 238 to 240 °C for the second.

First: CCc1cc(Cc2cc(C)c(N)c(CC)c2)cc(C)c1N
Second: CCC(CC)Oc1cc(C)nc(Oc2c(C)cc(C)cc2C)c1N
The melting point of the first is lower: 85 to 86 °C for the first, 96 to 98 °C for the second.

First: CC(C)N=C(NC#N)Nc1cc(C(F)(F)F)cc(C(F)(F)F)c1
Second: CCOC(=O)C(C)Oc1cc(-n2c(=O)cc(C(F)(F)F)n(C)c2=O)c(F)cc1Cl (stereo not drawn)
The melting point of the first is higher: 176 to 182 °C for the first, 72 to 74 °C for the second.

First: O=C(NCCC12CC3CC(CC(C3)C1)C2)c1cccc(Cl)c1Cl
Second: Cc1ncccc1C(=O)NCC1CCN(C[C@H]2COc3cccc(Cl)c3O2)CC1
The melting point of the first is higher: 158 to 159 °C for the first, 147 to 149 °C for the second.

First: CCOC(=O)c1cnc2onc(C)c2c1OCC
Second: CCOC(=N)c1cccc(C)c1OC
The melting point of the first is lower: 62 °C for the first, 93 to 96 °C for the second.

First: O=C(O)c1ccc(-c2ccc(NS(=O)(=O)c3cccnc3)cc2)[nH]c1=O
Second: COc1ccc(S(=O)(=O)Nc2ccc(Cl)cc2/C=C/c2ccncc2)cc1
The melting point of the first is higher: > 260 °C for the first, 175 to 176 °C for the second.

Compared with `CC(=O)C1=C(O)C(=C(C)Nc2ccc(OC(=O)NCc3ccccc3)cc2)C(=O)OC1=O`, `CC(C)(C)OC(=O)NCc1cccc(OCCC2Oc3ccccc3N(Cc3ccc(Cl)cc3)C2=O)c1` (stereo not drawn) is lower in melting point: 195 to 197 °C for the first, 114 to 116 °C for the second.

First: COC(=O)N=C(NC(=O)Nc1ccc(Cl)c(C(=O)OC(C)C)c1)SC
Second: COC(=O)c1sc(C(C)C)cc1NC(=O)Nc1ccccc1
The melting point of the first is lower: 93 to 94 °C for the first, 108 to 110 °C for the second.

First: COc1cccc2c1CCC21OC(=O)c2ccccc21 (stereo not drawn)
Second: Cc1nc2c(O[C@@H]3c4ccccc4CC[C@H]3O)cccn2c1CC#N (relative stereo)
The melting point of the first is lower: 111 to 112 °C for the first, 154 to 155 °C for the second.

Compared with `CC(=O)CC(=O)c1cc(Cl)c(Cl)cc1O`, `CCN(CC)C(=O)COc1cc(N)c(Cl)cc1C(=O)O` is higher in melting point: 134 to 135 °C for the first, 186 to 188 °C for the second.

First: CC1=NC(Cc2ncc(Br)cn2)C(Br)=CN1 (stereo not drawn)
Second: C#CCOc1ccc(Br)cn1
The melting point of the first is higher: 176 °C for the first, 58 to 60 °C for the second.

First: CCN1CCN(c2ccc(Br)cc2)CC1
Second: COc1ccc(C)cc1NC(=O)Nc1ccc(N2CCN(C(=O)Nc3c(C)cccc3OC)CC2)cc1
The melting point of the first is lower: 112 °C for the first, 200 to 203 °C for the second.

First: CC1=C(C#N)C(=C(C#N)C#N)OC1(C)C
Second: CSC(=C(C#N)C#N)N(C)N=Cc1ccccc1
The melting point of the first is higher: 203 °C for the first, 159 to 160 °C for the second.

First: Cn1c2ccccc2c2c(=O)[nH]ccc21
Second: Cc1ccc(C2=NN(c3ccccc3)C(=O)C2)cc1
The melting point of the first is higher: 242 °C for the first, 112 to 113 °C for the second.

First: Nc1cccc(-c2cncc(OC[C@@H]3CCN3)c2)c1
Second: C#CC(OC(=O)C1CC1)c1ccc2ccccc2c1 (stereo not drawn)
The melting point of the first is higher: 85 to 87 °C for the first, 65 to 66 °C for the second.

First: CC(C)(C)OC(=O)NCCC[C@@H](CO)NC(=O)OCC1c2ccccc2-c2ccccc21
Second: CCOC(=O)C(CC)c1ccc(N2Cc3ccccc3C2=N)cc1 (stereo not drawn)
The melting point of the first is lower: 107 to 109 °C for the first, 157 to 159 °C for the second.

Compared with `COc1cccc2c1[C@@H](Oc1cc(C(=O)N(C)C)cn3c(C)c(C)nc13)[C@H](O)C2` (relative stereo), `Cc1nn(-c2ccc(F)cc2)cc1C(=O)Nc1ccc(OCC(C)(C)C)c(C#N)c1` is higher in melting point: 129 °C for the first, 181 to 182 °C for the second.

First: CC(C)OCC(COC(C)C)OCn1cnc2cnc(N)nc21
Second: COC(=O)/C=C(\C)C(C)Sc1nc(N)cc(Cl)n1 (stereo not drawn)
The melting point of the first is lower: 89 to 90 °C for the first, 124 to 126 °C for the second.

First: CCC1=C(C)CN(C(=O)NC2COc3cc(OC)c(S(=O)(=O)NC(=O)NC)cc3C2)C1=O (stereo not drawn)
Second: COc1ccc(-n2c(=O)cc(C(F)(F)F)n(C)c2=O)c2c1CC(C)(C)O2
The melting point of the first is higher: 245 to 246 °C for the first, 201 to 203 °C for the second.

First: Cc1c(C)c(N2C(=O)c3cc(Cl)c(Cl)cc3C2=O)c(C)c2c1OC(C)(C)C2c1ccc(F)cc1 (stereo not drawn)
Second: COC(=O)c1cc(-c2ccc3c(c2)c2cc(-c4ccc(Cl)cc4Cl)c(=O)n(C)c2n3C)on1
The melting point of the first is lower: 232 to 233 °C for the first, 280 to 281 °C for the second.

Compared with `CCOC(=O)C(C(=O)OCC)C(CC#N)c1ccc(CC)cc1` (stereo not drawn), `O=C(O)CCc1ccc(OCCSCCO)cc1` is lower in melting point: 157 to 159 °C for the first, 64 to 65 °C for the second.

First: Nc1ccc(C(=O)Nc2ccc(Cl)nc2)cc1F
Second: Oc1ccc(F)cc1Cc1ccc(F)cc1
The melting point of the first is higher: 193 °C for the first, 134 to 139 °C for the second.

First: CCCCCCCCCCS(=O)(=O)Nc1cc(C(=O)Nc2ccccc2)ccc1OC
Second: CN(CCCCCCCNC(=O)NCCCOc1cccc(CN2CCCCC2)c1)CCN(Cc1ccc(F)cc1)c1ccccn1
The melting point of the first is higher: 160 to 161 °C for the first, 112 °C for the second.

First: CC(=O)OC1CCC2(C)C(CCC3C4CCC(C(C)CC(=O)C(=O)N5CCOCC5)C4(C)CC(=O)C32)C1 (stereo not drawn)
Second: CC(CO)C1CCC2C3CCC4=CC(=O)CCC4(C)C3CCC12C (stereo not drawn)
The melting point of the first is lower: 122 to 123 °C for the first, 140 to 141 °C for the second.

First: Cc1ncc(CSC(=O)c2cccc(C(=O)SCc3cnc(C)c4c3COC(C)(C)O4)c2)c2c1OC(C)(C)OC2
Second: COc1cc2c(cc1CCCCO)oc1cc(-c3ccccc3Cl)c3c(c12)C(=O)NC3=O
The melting point of the first is lower: 125 to 127 °C for the first, 158 to 162 °C for the second.

First: O=c1[nH]c2ncc(-c3cn[nH]c3)nc2n1CC1CCOCC1
Second: O=C(c1ccc(Cl)c([N+](=O)[O-])c1)c1cnc(NC2CCCCC2)s1
The melting point of the first is higher: 238 to 240 °C for the first, 194 to 198 °C for the second.

First: ClCCCCOc1cccc(OCCCCCl)c1
Second: O=S(CCCCCl)Cc1ccc(Cl)c(Cl)c1 (stereo not drawn)
The melting point of the first is lower: 85 to 86 °C for the first, 155 to 158 °C for the second.

First: CN1NCc2c(Cl)ncnc21
Second: CCN1c2ncccc2C(=NC#N)Nc2c(C)cc(C)nc21
The melting point of the first is lower: 97 to 99 °C for the first, 230 to 233 °C for the second.

First: C=Cc1cc(OP(=O)(O)O)cc2nc(-c3ccc(OP(=O)(O)O)c(F)c3)oc12
Second: CCOP(=O)(/C=C/c1cn(-c2ccccc2)nc1OCc1ccc(OCc2nc(-c3ccccc3)oc2C)cc1)OCC
The melting point of the first is higher: > 180 °C for the first, 109 to 110 °C for the second.

First: COC(=O)C1CSC=CCCCC(=O)N1 (stereo not drawn)
Second: CCOC(=O)N[C@@H](C(=O)N1CCC[C@H]1C(=O)O)c1ccccc1
The melting point of the first is lower: 160 to 161 °C for the first, 163 to 166 °C for the second.

First: Nn1c(=O)cc2n(C3CC3)c3cc(N4CCNCC4)c(F)cc3n2c1=O
Second: O=c1[nH]c2ccccc2n1CCCN1CCNCC1
The melting point of the first is higher: 232 to 234 °C for the first, 158 °C for the second.

Compared with `CCOC(=O)c1ccccc1COc1ccc(C=O)cc1`, `Cc1cc(-c2ccccc2O)n(-c2ccccc2)n1` is higher in melting point: 60 to 62 °C for the first, 211 to 214 °C for the second.

Compared with `COc1cc2c(cc1OC)C(=O)C(Br)C2` (stereo not drawn), `CC(C)(C)c1cc(SC2CC(=O)N(c3ccccc3)C2=O)cc(C(C)(C)C)c1O` (stereo not drawn) is lower in melting point: 159 to 160 °C for the first, 134 to 137 °C for the second.

First: CC(C)(C)OC(=O)CNc1nccc(-c2nc(=O)c3ccccc3s2)n1
Second: Cc1cc(SCC#Cc2ccc(Cl)cc2)ccc1OCC(=O)O
The melting point of the first is higher: 247 to 248 °C for the first, 106 to 108 °C for the second.

First: CO[C@H]1O[C@@H](C)[C@@H]2C(=O)[C@H]3CCCC[C@@H]3C[C@H]12
Second: C=C1C(=O)CCC(C)(C)C1=O
The melting point of the first is lower: 86 to 87 °C for the first, 115 to 116 °C for the second.

First: CCCCOC1C=CC(=O)N1S(=O)(=O)c1cccs1 (stereo not drawn)
Second: CCCn1c(=O)c2[nH]c(/C=C/c3ccc(OC)cc3)nc2n(CCC)c1=O
The melting point of the first is lower: 56 to 57 °C for the first, 281 to 284 °C for the second.

`O=C1Nc2cc(F)ccc2N2CCN(CCCCc3ccncc3)CC12` (stereo not drawn) and `CC(C)CCCC(C)NC1=NS(=O)(=O)c2cc(Cl)ccc2N1` (stereo not drawn) cannot be ordered by melting point: 262 to 264 °C for the first, > 220 °C for the second.

Compared with `Oc1cccc(-c2cc(-c3ccc(-c4ccccc4)cc3)cc(-c3ccc4ccccc4c3)n2)c1`, `COc1cc(CNC(c2ccccc2)c2ccccc2)ccc1O` is lower in melting point: 174 to 175 °C for the first, 115 to 118 °C for the second.

Compared with `NNC(=O)Cc1ccccc1S(N)(=O)=O`, `CN1CC2(CCN(Cc3ccccc3)CC2)OC1=O` is higher in melting point: 116 to 125 °C for the first, 137 to 138 °C for the second.

In the case of `CCNC(=O)c1cc(Oc2nn(C)c(C(F)(F)F)c2Cl)ccc1[N+](=O)[O-]`, the melting point is reported as 130 °C.
